This note sets out measurements from US20230226056A1, “[…] FOR PREVENTING OR TREATING SARS-COV-2 INFECTIONS” (priority 2020, published 2023).

For data set [1], the target named is T1, SARS-CoV-2 Spike S1 protein binding to ACE2-expressing A549 cells (Severe acute respiratory syndrome coronavirus 2, UniProt P0DTC2).
T1 construct: the HIS-tagged SARS-Cov2-S1 protein is added to each tube; ACE2: endogenous in A549 cells (ATCC)
It is filed as cell-based.

Data set [2] is described as follows: Maximum solubility of ectoine. It is filed as physicochemical. An excerpt:
For a maximally saturated solute solution, concentrations that are just below the solubility limit of the respective solute are preferred. Such a highly concentrated solute solution can be used as a starting solution to prepare the solution required on site. In this way, individual solutions can be diluted depending on the administration required, the patient's condition (existing conditions, age, etc.) and/or desired therapy. This is especially beneficial when not differently concentrated solutions can be stored.

Data set [3] is described as follows: Osmolarity of ectoine solution. It is filed as physicochemical. An excerpt: An isotonic NaCl solution of 0.9% has an osmolar activity of 286 mOsmol/kg H2O. A 2% ectoine solution has an osmolarity of 147 mOsmol/kg H2O. An isotonic ectoine solution thus has a concentration of 3.89%.
The nature of data set [4]: Oral toxicity. It is filed as in vivo.
Data set [5] is described as follows: Plasma concentration after oral ectoine in rats. It is filed as in vivo. Particulars: 1000 mg/kg.

Structures are written as SMILES. “Also recorded” adds a separate entry of the source.

In the case of `CC(=O)NCC[C@H](N)C(=O)O` [NADA, Nγ-Acetyl-L-2,4-diaminobutyric acid, reference compound], in data set [1], the “Median (background-subtracted fluorescence, Mann Whitney test)” value was 1.820, n = 4; the “effect on Cov2 S1 protein binding to A549 cells” value is “no effect”; the “effect on the binding between Cov2 S1 and the A549 cells” value was “No effect”; the “inhibition of the binding of the Cov2 S1 protein to A549 cells” value is recorded as “no inhibition; also recorded: little inhibition; also recorded: no significant effect”. In addition, the “inhibitory effect on Cov2 S1 binding” value in data set [1] is “comparable to untreated cells”.

As for `CC1=N[C@H](C(=O)O)CCN1` [ectoine, (4S)-2-Methyl-1,4,5,6-tetrahydropyrimidine-4-carbon acid], in data set [1], the “Median (background-subtracted fluorescence, Mann Whitney test)” value was 0.3050, n = 4; the “bound viral Cov2 S1 protein on the cell surface” value was “less or no bound viral Cov2 S1 protein”; the “fluorescence of the Cov2 S1 protein bound to A549 cells” value is given as “lower fluorescence”; the “inhibition of the binding of the Cov2 S1 protein to A549 cells” value was “complete inhibition; also recorded: positive effect”. The “inhibitory effect on Cov2 S1 binding” value in data set [1] is “significant”. In addition, in data set [2] (25° C.), the maximum solubility result is “about 550 g/L”. Further, the maximum solubility entry in data set [2] (40° C.) was “about 620 g/L”. Further, the osmolarity in data set [3] (2% ectoine solution) is given as 147 mOsmol/kg H2O. For the same compound, the “concentration of an isotonic ectoine solution” value in data set [3] (relative to isotonic 0.9% NaCl, 286 mOsmol/kg H2O) is 3.89%. For the same compound, the NOAL in data set [4] amounted to 2000 mg/kg body weight/day. Further, the plasma concentration in data set [5] turned out to be 99 µg/mL.
